Reference: patent publication US7173014B2, “HIV-specific synthetic oligonucleotides and methods of their use” (priority 1997, dated 2007)
d = 2'-deoxy (DNA); m = 2'-O-methyl

Columns and labels:
HIV-2 (ROD) = test: XTT-based anti-HIV assay, HIV-2; assay type: cell-based
Description: (§1) The initial experiment performed involved evaluation of Oligos 12, 32, and 41 against three laboratory strains of HIV-1 (IIIB, RF and SK1) and one strain of HIV-2 (ROD) in parallel with the positive control compound ddC in the XTT-based anti-HIV assay. All these oligonucleotides are active against both HIV-1 and HIV-2.
(§2) CEM-SS sells (AIDS Research and Reference Reagent Program, NIH) or other established human T cell lines used in these experiments were passaged in T-150 flasks for use in the assay. On the day preceding the assay, the cells were split 1:2 to assure they would be in an exponential growth phase at time of infection. On the day of assay the cells were washed twice with tissue culture medium and resuspended in fresh tissue cultures medium. Total cell and viability counting was performed using a hemacytometer and trypan blue dye exclusion. Cell viability was greater than 95% for the cells to be utilized in the assay. The cells were pelleted and resuspended at 2.5×10^4 cells per ml in tissue culture medium. Cells were added to the drug-containing plates in a volume of 50 μl.
A pretitered aliquot of virus was removed from the freezer −80° C.) and allowed to thaw slowly to room temperature in a biological safety cabinet. The virus was resuspended and diluted into tissue culture medium such that the amount of virus added to each well in a volume of 50 μl will be the amount determined to give complete cell killing at 6 days post-infection. In general the virus pools produced with the IIIB isolate of HIV required the addition of 5 μl of virus per well.
Each plate contained cell control wells (cells only), virus control wells (cells plus virus), drug toxicity control wells (cells plus drug only), drug colorimetric control wells (drug only) as well as experimental wells (drug plus cells plus virus).
After 6 days of incubation at 37° C. in a 5% CO2 incubator, the test plates were analyzed by staining with the tetrazolium dye XTT. XTT-tetrazolium is metabolized by the mitochondrial enzymes of metabolically active cells to a soluble formazan product, allowing the rapid quantitative analysis of the inhibition of HIV-induced cell killing by anti-HIV test substances. On day 6 post-infection plates were removed from the incubator and observed. The use of round bottom microtiter plates allows rapid macroscopic analysis of the activity of a given test compound by the evaluation of pellet size. The results of the macroscopic observations were confirmed and enhanced by further microscopic analysis.
XTT solution was prepared daily as a stock of 1 mg/ml in PBS. Phenazine methosulfate (PMS) solution was prepared at 15 mg/ml in PBS and stored in the dark at −20° C. XTT/PMS stock was prepared immediately before use by diluting the PMS 1:100 into PBS and adding 40 μl per ml of XTT solution. Fifty microliters of XTT/PMS was added to each well of the plate and the plate was incubated for an additional 4 hours at 37° C. Adhesive plate sealers were used in place of the lids, the sealed plate was inverted several times to mix the soluble formazan product and the plate was read spectrophotometrically at A450 nm with a Molecular Devices Vmax plate reader.

HIV-1 IIB = test: CPE-based inhibition of acute infection of MT-4 cells (MTT); assay type: cell-based
Procedure: CPE based infection experiments were performed using MT-4 cells (Pauwels et al. (1988) J. Virol. Meth. 20:309; Papp et al. (1997) AIDS Research and Human Retroviruses In Press). MT-4 cells were obtained from the AIDS Research and Reference Reagent Bank, Division of AIDS, NIAID, NIH contributed Dr. Richman (Pauwels et al. (1988) J. Virol. Meth. 20:309) T-lymphoid H9 (HUT-78) cells were obtained from Dr. Robert Gallo, National Cancer Institute, Bethesda, Md. (Popovic et al. (1984) Science 224:497; Gazdar et al. (1980) Blood 55:409). Cell cultures were maintained in RPMI 1640 medium (GIBCO Laboratories, Grand Island, N.Y.) supplemented with 20% (H9 cells), or 10% (MT-4 cells) heat-inactivated fetal bovine serum (Sigma Chemical Co., St. Louis, Mo.) 250 units/ml penicillin, 250 μg/ml streptomycin, 2 mM 1-glutamine, and 10 mM HEPES (N-2-hydroxyethylpiperazine-N′-2-ethanesulfonic acid) buffer (complete medium) at 37° C. in 5% CO2. HIV-1 IIB was originally obtained from Dr. Robert Gallo, National Cancer Institute (Popovic (1984) Science 224:497). Virus stocks of HIV-1 were prepared from cell-free filtered supernatant of chronically infected H9 cultures by the shaking method as previously described by Vujoie et al. (J. Infectious Diseases (1988) 157:1047).
Experiments were performed under two sets of conditions. […] The cultures were incubated for 6 days and CPE measured using the MTT dye method. […]

[1] = In vivo bioavailability after a single dose, monkeys; conditions: intravenous and oral
[2] = system: low passage, clinical strains of HIV-1; test: Anti-HIV activity in fresh human peripheral blood mononuclear cells; assay type: cell-based; conditions: fresh human PBMC; varies from strain to strain
Procedure: In another experiment, the anti-HIV activity of Oligos 12, 32, and 41 was evaluated against a variety of low passage, clinical strains of HIV-1 in fresh human peripheral blood mononuclear cells. These strains include viruses obtained from pediatric patients attending the Children's Hospital University of Alabama at Birmingham as well as viruses representative of the various HIV-1 clades found throughout the world, shown below in TABLE 4.
Fresh human peripheral blood lymphocytes (PBL) were isolated from voluntary Red Cross donors, seronegative for HIV and HBV. Leukophoresed blood was diluted 1:1 with Dulbecco's phosphate buffered saline (PBS), layered over 14 ml of Ficoll-Hypaque density gradient in a 50 ml centrifuge tube. Tubes were then centrifuged for 30 minutes at 600×g. Banded PBLs were gently aspirated from the resulting interface and subsequently washed 2× with PBS by low speed centrifugation. After final wash, cells were enumerated by trypan blue exclusion and re-suspended at 1×10^7/ml in RPMI 1640 with 15% Fetal Bovine Serum (FBS), 2 mM L-glutamine, […] PHA-P and allowed to incubate for 48–72 hours at 37° C. After incubation, PBLs were centrifuged and reset in RPMI 1640 with 15% FBS, 2 mM L-glutamine, 100 U/ml penicillin, 100 μg/ml streptomycin, 10 μg/ml gentamycin, and 20 U/ml recombinant human IL-2. PBLs were maintained in this medium at a concentration of 1–2×10^6/ml with bi-weekly medium changes, until use in assay protocol. […]
In the standard PBL assay (MOI: 0.2), the assay was ended on day 7 following collection of cell free supernatant samples for reverse transcriptase activity assay. In the low MOI PBL assay (MOI: 0.02), supernatant samples were collected on day 6, day 11, and day 14 post-infection and analyzed for RT activity. […] Opti-Fluor O was added to each sample and incorporated radioactivity was quantified utilizing a liquid scintillation counter, (Wallac 1450 Microbetaplus, Gaithersburg, Md.).

HIV-1 (IIIB, RF and SK1) = test: XTT-based anti-HIV assay, laboratory strains of HIV-1; assay type: cell-based
Description: as §1
as §2, with “Cells were added to the drug-containing plates in a volume of 50 μl.” left out
A pretitered aliquot of virus was removed from the freezer −80° C.) and allowed to thaw slowly to room temperature in a biological safety cabinet. The virus was resuspended and diluted into tissue culture medium such that the amount of virus added to each well in a volume of 50 μl will be the amount determined to give complete cell killing at 6 days post-infection. […]
After 6 days of incubation at 37° C. in a 5% CO2 incubator, the test plates were analyzed by staining with the tetrazolium dye XTT. XTT-tetrazolium is metabolized by the mitochondrial enzymes of metabolically active cells to a soluble formazan product, allowing the rapid quantitative analysis of the inhibition of HIV-induced cell killing by anti-HIV test substances. […]
XTT solution was prepared daily as a stock of 1 mg/ml in PBS. […] Adhesive plate sealers were used in place of the lids, the sealed plate was inverted several times to mix the soluble formazan product and the plate was read spectrophotometrically at A450 nm with a Molecular Devices Vmax plate reader.

[3] = In vivo bioavailability after a single dose, rats; conditions: intravenous and oral
[4] = system: monocyte-macrophage-tropic strains BaL and ADA; test: Anti-HIV assay in fresh human monocyte-macrophages; assay type: cell-based, HIV-1
Procedure: In addition to these T-tropic strains, the activity of the compounds was also evaluated against the monocyte-macrophage strains BaL and ADA. Oligos 12 and 32 according to the invention, as well as Oligo 41 are active against low passage clinical T-tropic strains of HIV-1. The activity of the compounds varies from strain to strain. The compounds were not active against the monocyte-macrophage-tropic strains BaL and ADA.
For isolation of adherent cells, 3×10^6 non-PHA stimulated peripheral blood cells were resuspended in Hanks buffered saline (with calcium and magnesium) supplemented with 10% human AB serum. The cells were placed in a 24-well microtiter plate at 37° C. for 2 hours. Non-adherent cells were removed by vigorously washing six times. The adherent cells were cultured for 7 days in RPMI 1640 tissue culture medium with 15% fetal bovine serum. The cultures were carefully monitored for confluency during this incubation period. Infection of the cells was performed with the monocytotropic HIV-1 strains BaL or ADA and the matched pair of AZT-sensitive and AZT-resistant virus isolates. Each of these virus isolates was obtained from the NIAID AIDS Research and Reference Reagent Program. High titer pools of each of these viruses have been harvested from infected cultures of peripheral blood adherent cells and frozen in 1.0 ml aliquots at −80° C. Monocyte-macrophage monolayers were infected at an MOI of 0.1. Compounds to be evaluated in the monocyte-macrophage assay are added to the monolayers shortly before infection in order to maximize the potential for identifying active compounds.
At 2 days post-infection, the medium was decanted and the cultures washed twice with complete medium in order to remove excess virus. […] Control curves are generated in each assay to accurately quantify the amount of capsid protein in each sample. Data was obtained by spectrophotometric analysis at 450 nm using a plate reader (Molecular Devices Vmax). P24 concentrations were calculated from the optical density values by use of the Molecular Device software package Soft Max.

| Substance | inhibition of HIV-2-induced cell killing (HIV-2 (ROD); XTT assay (FIG. 3)) | inhibition of HIV-1 infection (HIV-1 IIB; MT-4 cells treated during initial infection (FIG. 1)) | inhibition of HIV-1 infection (HIV-1 IIB; MT-4 cells treated following initial infection, post-viral adsorption (FIG. 2)) | bioavailability [1] | activity against low passage clinical T-tropic strains of HIV-1 [2] | activity against HIV-1 (HIV-1 (IIIB, RF and SK1)) | level of activity against the HIV-2 strain ROD (HIV-2 (ROD); compared with the HIV-1 strains, XTT assay) | activity against HIV-2 (HIV-2 (ROD); strain ROD, XTT assay) | bioavailability [3] | activity against monocyte-macrophage-tropic strains BaL and ADA [4] |
| --- | --- | --- | --- | --- | --- | --- | --- | --- | --- | --- |
| 4×4: 21mer phosphorothioate linked oligonucleotide, deoxyribonucleotides flanked on each side by four 2′-O-methyl ribonucleotides; SEQ ID NO:1 (UCGCACCCATCTCTCTCCUUC; sugars from the 5' end m4 d13 m4, all phosphorothioate, methylation of C not given here) | inhibit HIV-2-induced cell killing | inhibition of HIV-1 infection | inhibition of HIV-1 infection |  |  |  |  |  |  |  |
| UCGCACCCATCTCTCTCCUUC (chemistry not given here) [Oligo 12] |  |  |  | intravenously and orally bioavailable | active | active | enhanced level of activity | active | intravenously and orally bioavailable | not active |
